Source: patent US20220310273A1, “SYSTEM FOR EVALUATING SENSITIVITY TO ANTI-CANCER AGENT AND A COMPUTER READABLE MEDIUM STORING PROGRAMS EXECUTING AN EVALUATING METHOD” (MBD Co., Ltd., priority 2021, published 2022)

System: cancer cells of biological individuals diagnosed with breast cancer
Experiment: evaluation of sensitivity to doxorubicin (DOX) in patient tissues, using cell colony growth rate and IC50 value
Conditions: patient tissue #2 (breast cancer)

IC50 value: low
Compound: COc1cccc2c1C(=O)c1c(O)c3c(c(O)c1C2=O)C[C@@](O)(C(=O)CO)C[C@@H]3O[C@H]1C[C@H](N)[C@H](O)[C@H](C)O1 [doxorubicin]
